Experimental data published in patent US20070117864A1, “Composition for preventing and treating hepatoma” (Tokyo University of Agr. & Tech. TLO Co., Ltd., priority 2003, published 2007).
Marks after values point to notes of the source that are not given here.

Columns and labels:
[1] = system: AH109A cells; experiment: in vitro invasion assay of AH109A cells beneath mesothelial cell (M-cell) monolayer; format: cell-based, rat
Procedure: The tumor invasion activity was measured using a partially modified version (Miura Y., Shiomi H., Sakai F., and Yagasaki K. 1997 Assay systems for screening food components that have anti-proliferative and anti-invasive activity to rat ascites hepatoma cells: In vitro and ex vivo effects of green tea extract. Cytotechnology 23: 127-132) of the in vitro invasion assay method of Akedo et al (Akedo H, Shinkai K, Mukai M, Mori Y, Tateishi R, Tanaka K, Yamamoto R, Morishita T. Interaction of rat ascites hepatoma cells with cultured mesothelial cell layers: a model for tumor invasion. Cancer Res. 1986 May; 46(5):2416-22).
Mesothelial cells (M-cells) directly prepared from rat mesenteries to culture were cultured for 7 to 10 days until a confluent monolayer was formed, and subsequently, the medium was changed to 3 ml of the respective experimental media. AH109A cells were overlayed onto the mesothelial cells at the density of 2.4×10^4 cells, and were gently agitated, and were cultured in a CO2 incubator. […] The numbers of cells and numbers of colonies of the AH109A cells that had infiltrated beneath the mesothelial cell monolayer were counted in 10 places of 2-mm square divisions selected at random for 1 dish, and the mean values of the numbers obtained by calculating these counts per square centimeter were taken as an index of the tumor invasion activity. […]

[2] = system: AH109A cells; experiment: cell cycle analysis of hepatoma cells by PI staining and flow cytometry; format: cell-based, rat
Procedure: The effects of 6.25 μM and 12.5 μM ENL on the cell cycle of AH109A cells were analyzed. The AH109A cells were inoculated into a 6-well plate (NUNC) at the density of 2.5×10^5 cells per well, and the cells were cultured for 0, 24 and 48 hours at 37° C. in a CO2 incubator. The AH109A cells cultured under the respective treatment conditions were recovered in 2-ml sampling tubes (Nippon Genetex, Tokyo); these cells were centrifuged for 5 minutes at 1000 rpm (190×g), 4° C., and then washed twice with PBS (−). Subsequently, 300 μl of a PI solution (1 mg propidium iodide (SIGMA)/20 ml 0.1% Triton X-100, 0.1% sodium citrate (Wako Pure Chemical Industries)) was added, and the preparation was dyed by allowing the preparation to kept quietly on ice for 30 minutes with the light blocked. The cell cycle was analyzed with a flow cytometer (EPICS ELITE ESP; Beckman-Coulter, Hialeah, Fla., USA).

[3] = system: AH109A cells; experiment: apoptosis of AH109A cells by flow cytometry, Annexin V/PI double staining; format: cell-based, rat; conditions: for proportion of the fourth quadrant (early stage of apoptosis) / proportion of the second quadrant (secondary necrosis) / proportion of the third quadrant (live cells): 3 hours
Procedure: The analysis was performed using an ANNEXIN V FITC kit (IMMUNOTECH, Marseille, France). AH109A cells were inoculated at the density of 1×10^6 cells with 3 ml of the experimental medium in a dish with 6 cm in diameter (NUNC), and the cells were cultured for 0, 3 and 6 hours in a CO2 incubator at 37° C. The AH109A cells cultured under the respective treatment conditions were recovered, centrifuged for 5 minutes at 4° C. at 1000 rpm (90×g), and washed once with PBS (−). Subsequently, the cells was suspended in 490 μl of a binding buffer, and 5 μl of a PI solution and 5 μl of ANNEXIN V FITC, and these substances were gently mixed. The cells were stained by allowing the preparation to stand quietly for 10 minutes on ice with the light blocked. The apoptosis of the cells was analyzed using a flow cytometer (EPICS ELITE ESP; Beckman-Coulter, Hialeah, Fla., USA).

[4] = system: AH109A cells; experiment: solid tumor growth and metastasis in hepatoma-bearing rats fed ENL-supplemented diets; format: in vivo, rat; conditions: for Total number of metastasis/group / Hepatoma weight: 21 days; for Hepatoma weight: mean ± SEM of 11 rats
Procedure: Male Donryu rats of four weeks old were purchased from NRC Haruna, Gumma, Japan, and were preliminarily fed for 6 days in quintuple cages in a room with a controlled environment with light period of 8:00 to 20:00, room temperature of 22±1° C., and relative humidity of 60±5%. For the first 3 days, the animals were fed ad libitum with a stock pellet diet (CE-2; CLEA Japan, Tokyo), and for the next 3 days, they were fed a basal diet containing 20% milk casein (20C) (Table 1) ad libitum together with tap water in a glass container. Following the completion of this preparatory raising, the rats were divided into three groups (11 animals per group) with equal average body weights of the respective groups were equal, and 1.0×10^7 of AH109A cells suspended in PBS (−) were transplanted in the back of all the rats. From the time immediately after transplantation, in the respective experimental groups, the animals were fed the experimental diets shown in Table 2. During the experimental period, the body weight, food intake and solid tumor size (sum of length, width and height) were measured everyday. On the day that the animals were killed, animals were deprived of experimental diets at 9:00, but freely given water until they were killed 4 hours later. Blood was collected from carotid, and the liver and solid tumors were excised. The collected blood was allowed to stand for approximately 2 hours at room temperature, and then centrifuged for 10 minutes at 3000 rpm (1750×g), 4° C., to obtain serum. This blood serum was frozen and stored at −20° C. The livers and solid tumors were washed with physiological saline, blotted on filter paper, and weighed. Furthermore, feces from the 19th to 21st days after transplantation were collected, and these feces were frozen and stored at −20° C. for the measurement of the amounts of steroids excreted from the body. The length, width and height of the solid tumors were measured, and the sums of these values were used as an index of solid tumor size.

[5] = ENL treatment for 24 hours, versus 0 μM control

Q: `O=C1OCC(Cc2cccc(O)c2)C1Cc1cccc(O)c1` (stereo not drawn) [Enterolactone, enterolactone] was tested. Which “ENL concentration at which cell toxicity was seen in the M-cells of the invasion assay system” value ([1]; M-cells in tumor invasion assay) did it give?
A: ≥ 25 µM

Q: What about the “effect on tumor invasion of AH109A cells” value ([1]; in vitro, 24 hours on M-cell monolayer) of the same compound?
A: dose-dependent inhibitory effect

Q: What about the “effect on the cell cycle” value ([2]; ENL treatment for 0 hours, various concentrations) of the same compound?
A: no effect

Q: And the “proportion of the G1 phase” value [2, 5]?
A: increase

Q: What about the “proportion of the S phase” value [2, 5] of the same compound?
A: decrease

Q: What about the “proportion of the fourth quadrant (early stage of apoptosis)” value ([3]; 6.25 μM ENL) of the same compound?
A: 8.4%

Q: What about the “proportion of the second quadrant (secondary necrosis)” value ([3]; 6.25 μM ENL) of the same compound?
A: 2.8%

Q: And the “proportion of the third quadrant (live cells)” value ([3]; 6.25 μM ENL)?
A: 88.1%

Q: And the “proportion of the fourth quadrant (early stage of apoptosis)” value ([3]; 12.5 μM ENL)?
A: 11.4%

Q: What about the “proportion of the second quadrant (secondary necrosis)” value ([3]; 12.5 μM ENL) of the same compound?
A: 2.3%

Q: And the “proportion of the third quadrant (live cells)” value ([3]; 12.5 μM ENL)?
A: 86.1%

Q: What about the “proportion of cells in the early stage of apoptosis” value ([3]; 6.25 and 12.5 μM ENL) of the same compound?
A: increased

Q: What about the “proportion of cells showing secondary necrosis” value ([3]; 6.25 and 12.5 μM ENL) of the same compound?
A: increased to some extent

Q: And the “proportion of live cells” value ([3]; 6.25 and 12.5 μM ENL)?
A: decreased in a dose-dependent manner

Q: And the “solid tumor sizes (sum of length, width and height)” value ([4]; 100 ppm ENL diet, 7th, 8th and 18th to 21 days after transplantation, versus control diet)?
A: significant suppression

Q: What about the “metastasis over 21 days following transplantation” value ([4]; ENL diet groups (10 and 100 ppm)) of the same compound?
A: no metastasis was observed

Q: What about the solid tumor weight ([4]; both ENL ingestion groups versus control) of the same compound?
A: significant decrease

Q: And the “Total number of metastasis/group” value ([4]; diet 10 ppm)?
A: 0

Q: And the Hepatoma weight ([4]; diet 10 ppm)?
A: 3.4 ± 1^b g/rat

Q: What about the “Total number of metastasis/group” value ([4]; diet 100 ppm) of the same compound?
A: 0

Q: What about the Hepatoma weight ([4]; diet 100 ppm) of the same compound?
A: 1.1 ± 0.2^b g/rat
